Test results as given in article PMC5364125 (EJNMMI Research, 2017).
“And” between values parts separate entries of the source, which are not always exact repeats. Equal values may be shown once. Read-outs that look alike come from different tables or passages of the source.

Columns and labels:
TSPO [1] = tested on: TSPO; design: method as in PMID 25771904; conditions: herpes encephalitis rat model; cited from earlier work
TSPO [2] = tested on: TSPO; design: method as in PMID 25616581; conditions: 6-hydroxydopamine-injured striatum; cited from earlier work
[3] = HPLC metabolite analysis of plasma and urine; assay type: in vivo, human
Experimental: (§1) PET scanning was performed using a Discovery PET/computed tomography (CT) 710 scanner (GE Healthcare, Milwaukee, WI) in 3D mode. This scanner has an axial field of view of 15.7 cm, a spatial resolution of 4.5 mm full width at half maximum (FWHM), and a Z-axis resolution of 4.8 mm FWHM. We acquired 47 slices. […] Arterial blood (0.5 mL each) was sampled at 10, 20, 30, 40, 50, 60, 70, 80, 90, 100, 110, 120, 135, 150, and 180 s, as well as at 5, 7, 10, 15, 20, 30, 40, 50, 60, 75, and 90 min. The whole blood and separated plasma were weighed, and radioactivity was measured with a NaI (Tl) well scintillation counter (BeWell Model-QS03 F/B; Molecular Imaging Labo, Suita, Japan). To analyze the labeled metabolites, 1.5 mL additional blood was obtained at 3, 10, 20, 30, 40, and 60 min. After the PET scan, urine was obtained from each subject, and radioactivity was measured.

[4] = Text: The protocol for investigating radiation dosimetry in human subjects using whole-body imaging was essentially the same as that reported previously.
Whole-body PET/CT scans were obtained using a Discovery 710 PET/CT scanner (GE Healthcare) in 3D mode. LD-CT was used for attenuation correction of the PET emission scan. […] Then, 128-min scans (18 frames, 13 bed positions per frame, overlap of 23 of 47 slices per bed, 15 s/bed × four frames, 30 s/bed × 12 frames, and 60 s/bed × two frames) from the top of the head to mid-thigh were performed. Images were reconstructed using a 3D-ordered subset expectation maximization algorithm (subset, 24; iteration, 2) with a 6.4-mm Gaussian filter.
ROIs were manually placed over […] that could be identified on PET or LD-CT: adrenals, brain, gallbladder, small intestine, stomach, heart wall, kidneys, liver, lungs, pancreas, bone marrow (thoracic and lumbar vertebrae), spleen, testes, thymus, thyroid, and urinary bladder. The decay-uncorrected and decay-corrected TACs of organs were calculated as the percent injected dose (%ID) per milliliter and the %ID per organ. The volume of bone marrow, in which only part of the organ could be measured, was substituted by the volume that was calculated from the mass of red marrow in the adult male phantom (1.12 kg for 73.7 kg of body weight) adjusted by the subject’s body weight and 1.04 g/mL as the specific gravity. The normalized number of disintegrations (MBq-h/MBq administered) for each source organ is equal to the area under the time course of decay-uncorrected curve (%ID/mL) multiplied by the volume of the organ ROI. The area under the time course curve was calculated by summing the area from time zero to the endpoint of the scan and the area from the endpoint of the scan to infinity. The former area was calculated by trapezoidal integration. The latter area was calculated by integration of radioactive decay from the endpoint.
The absorbed doses in 25 target organs of the adult male phantom were estimated from the normalized number of disintegrations of source organs by implementing the Medical Internal Radiation Dose method using OLINDA/EXM (Vanderbilt University). The effective dose was also calculated by OLINDA/EXM using the methodology described in International Commission on Radiological Protection Publication 60 [40].

TSPO [5] = assay: Dynamic brain PET, V T by two-tissue compartment model; assay type: in vivo, human
Experimental: as §1
The dynamic images were post-smoothed with a 4-mm FWHM Gaussian filter. The data were reconstructed in 128 × 128 × 47 voxels, and the voxel size was 2 × 2 × 3.27 mm. Partially overlapping circular regions of interests (ROIs) that were 10 mm in diameter were placed on the frontal, temporal, parietal, occipital, and cerebellar cortices, thalamus, putamen, and head of the caudate nucleus with reference to the co-registered MRI. TACs for these ROIs were calculated as becquerel per milliliter or as standardized uptake value (SUV): (activity/ml tissue)/(injected activity/g body weight). […] The goodness of fit by the two-model analysis was evaluated using AIC.

[6] = estimated from murine distribution data; cited from earlier work
[7] = two-tissue compartment model, typical subjects n = 4

CCCN(CCC)C(=O)Cc1c(-c2ccc(O[11CH3])cc2)nc2c(Cl)cc(Cl)cn12 [[^11C]CB184, N,N-di-n-propyl-2-[2-(4-[^11C]methoxyphenyl)-6,8-dichloroimidazol[1,2-a]pyridine-3-yl]acetamide]
regional uptake into inflamed areas compared with (R)-[^11C]PK11195 (TSPO [1]): higher
regional uptake into inflamed areas compared with (R)-[^11C]PK11195 (TSPO [2]): comparable
Percentage of radioactivity in plasma ([3]; 3 min after intravenous injection of [^11C]CB184, n = 5): 96.1 ± 2.7%
Percentage of radioactivity in plasma ([3]; 10 min after intravenous injection of [^11C]CB184, n = 5): 83.8 ± 8.9%
Percentage of radioactivity in plasma ([3]; 20 min after intravenous injection of [^11C]CB184, n = 5): 61.6 ± 8.0%
Percentage of radioactivity in plasma ([3]; 30 min after intravenous injection of [^11C]CB184, n = 5): 52.9 ± 4.9%
Percentage of radioactivity in plasma ([3]; 40 min after intravenous injection of [^11C]CB184, n = 5): 47.0 ± 5.0%
parent radioligand in voided urine ([3]; HPLC of voided urine): not detected
broad hydrophilic metabolites in urine ([3]; HPLC of voided urine, n = 3): 99.4% ± 0.6
total injected radioactivity recovered in urine ([3]; approximately 100 min post-injection): 0.3%
radioactivity voided into urine, of the injected activity ([3]; at 111 ± 17 min, n = 8): 0.3% ± 0.0
radioactivity voided into urine, of the injected activity ([4]; at 132 ± 0 min, n = 3): 0.3% ± 0
lungs radioactivity, initial time point ([4]; at 3.3 min, one subject): 25 %ID
lungs uptake ([4]; first frame): 25 % injected activity
Absorbed dose, Adrenals ([4]; healthy male subjects n = 3): 4.6 ± 0.9 μGy/MBq
Absorbed dose, Brain ([4]; healthy male subjects n = 3): 4.0 ± 0.3 μGy/MBq
Absorbed dose, Breasts ([4]; healthy male subjects n = 3): 2.2 ± 0.0 μGy/MBq
Absorbed dose, Gallbladder wall ([4]; healthy male subjects n = 3): 5.4 ± 0.4 μGy/MBq
Absorbed dose, Heart wall ([4]; healthy male subjects n = 3): 12.8 ± 0.5 μGy/MBq
Absorbed dose, Kidneys ([4]; healthy male subjects n = 3): 21.0 ± 0.5 μGy/MBq
Absorbed dose, Liver ([4]; healthy male subjects n = 3): 8.3 ± 0.9 μGy/MBq
Absorbed dose, Lower large intestine wall ([4]; healthy male subjects n = 3): 2.3 ± 0.1 μGy/MBq
Absorbed dose, Lungs ([4]; healthy male subjects n = 3): 16.8 ± 2.7 μGy/MBq
Absorbed dose, Muscle ([4]; healthy male subjects n = 3): 2.2 ± 0.1 μGy/MBq
Absorbed dose, Osteogenic cells ([4]; healthy male subjects n = 3): 3.6 ± 0.1 μGy/MBq
Absorbed dose, Ovaries ([4]; healthy male subjects n = 3): 2.5 ± 0.1 μGy/MBq
Absorbed dose, Pancreas ([4]; healthy male subjects n = 3): 16.5 ± 2.2 μGy/MBq
Absorbed dose, Red marrow ([4]; healthy male subjects n = 3): 3.2 ± 0.1 μGy/MBq
Absorbed dose, Skin ([4]; healthy male subjects n = 3): 1.7 ± 0.1 μGy/MBq
Absorbed dose, Small intestine ([4]; healthy male subjects n = 3): 5.4 ± 0.9 μGy/MBq
Absorbed dose, Spleen ([4]; healthy male subjects n = 3): 16.6 ± 6.6 μGy/MBq
Absorbed dose, Stomach wall ([4]; healthy male subjects n = 3): 4.5 ± 0.9 μGy/MBq
Absorbed dose, Testes ([4]; healthy male subjects n = 3): 3.6 ± 0.7 μGy/MBq
Absorbed dose, Thymus ([4]; healthy male subjects n = 3): 2.1 ± 0.0 μGy/MBq
Absorbed dose, Thyroid ([4]; healthy male subjects n = 3): 12.0 ± 3.9 μGy/MBq
Absorbed dose, Total body ([4]; healthy male subjects n = 3): 2.8 ± 0.0 μGy/MBq
Absorbed dose, Upper large intestine wall ([4]; healthy male subjects n = 3): 2.8 ± 0.1 μGy/MBq
Absorbed dose, Urinary bladder wall ([4]; healthy male subjects n = 3): 2.1 ± 0.1 μGy/MBq
Absorbed dose, Uterus ([4]; healthy male subjects n = 3): 2.5 ± 0.1 μGy/MBq
Effective dose ([4]; healthy male subjects n = 3): 5.9 ± 0.6 μSv/MBq
lungs uptake ([4]; last frame): 4.2 % injected activity
Normalized number of disintegrations, Adrenals ([4]; mean ± SD, n = 3): 1.3E-04 ± 5.7E-05 (9.5E-05 – 2.0E-04) MBq-h/MBq administered
Normalized number of disintegrations, Brain ([4]; mean ± SD, n = 3): 1.6E-02 ± 1.3E-03 (1.5E-02 – 1.7E-02) MBq-h/MBq administered
Normalized number of disintegrations, Gallbladder contents ([4]; mean ± SD, n = 3): 8.6E-04 ± 2.3E-04 (7.1E-04 – 1.1E-03) MBq-h/MBq administered
Normalized number of disintegrations, Heart wall ([4]; mean ± SD, n = 3): 1.3E-02 ± 6.2E-04 (1.3E-02 – 1.4E-02) MBq-h/MBq administered
Normalized number of disintegrations, Kidneys ([4]; mean ± SD, n = 3): 2.2E-02 ± 4.7E-04 (2.2E-02 – 2.2E-02) MBq-h/MBq administered
Normalized number of disintegrations, Liver ([4]; mean ± SD, n = 3): 4.2E-02 ± 5.4E-03 (3.8E-02 – 4.8E-02) MBq-h/MBq administered
Normalized number of disintegrations, Lungs ([4]; mean ± SD, n = 3): 6.2E-02 ± 1.1E-02 (5.1E-02 – 7.2E-02) MBq-h/MBq administered
Normalized number of disintegrations, Pancreas ([4]; mean ± SD, n = 3): 5.2E-03 ± 7.6E-04 (4.5E-03 – 6.0E-03) MBq-h/MBq administered
Normalized number of disintegrations, Red marrow ([4]; mean ± SD, n = 3): 1.0E-02 ± 1.7E-03 (8.8E-03 – 1.2E-02) MBq-h/MBq administered
Normalized number of disintegrations, Remainder ([4]; mean ± SD, n = 3): 2.9E-01 ± 2.0E-02 (2.8E-01 – 3.2E-01) MBq-h/MBq administered
Normalized number of disintegrations, Small intestine ([4]; mean ± SD, n = 3): 1.0E-02 ± 2.9E-03 (6.9E-03 – 1.3E-02) MBq-h/MBq administered
Normalized number of disintegrations, Spleen ([4]; mean ± SD, n = 3): 1.0E-02 ± 4.5E-03 (4.9E-03 – 1.3E-02) MBq-h/MBq administered
Normalized number of disintegrations, Stomach ([4]; mean ± SD, n = 3): 3.2E-03 ± 1.7E-03 (2.1E-03 – 5.2E-03) MBq-h/MBq administered
Normalized number of disintegrations, Testes ([4]; mean ± SD, n = 3): 4.3E-04 ± 1.1E-04 (3.1E-04 – 5.0E-04) MBq-h/MBq administered
Normalized number of disintegrations, Thymus ([4]; mean ± SD, n = 3): 3.8E-05 ± 1.8E-06 (3.7E-05 – 4.1E-05) MBq-h/MBq administered
Normalized number of disintegrations, Thyroid ([4]; mean ± SD, n = 3): 9.4E-04 ± 3.4E-04 (6.3E-04 – 1.3E-03) MBq-h/MBq administered
Normalized number of disintegrations, Urinary bladder contents ([4]; mean ± SD, n = 3): 9.8E-05 ± 3.7E-05 (5.5E-05 – 1.2E-04) MBq-h/MBq administered
time of peak radioactivity in liver ([4]; whole-body PET): 20 min
time of peak radioactivity in all gray matter regions (TSPO [5]; after intravenous injection, typical subjects n = 4): about 5 min
V T values relative to those of (R)-[^11C]PK11195 (TSPO [5]; comparison with ref 15 values): 10 times
V T caudate (TSPO [5]; [7]): 3.2 ± 0.1 mL/cm^3
V T cerebellum (TSPO [5]; [7]): 4.4 ± 0.2 mL/cm^3
V T frontal cortex (TSPO [5]; [7]): 4.0 ± 0.2 mL/cm^3
V T occipital cortex (TSPO [5]; [7]): 4.3 ± 0.2 mL/cm^3 and 4.3 ± 0.5 mL/cm^3
V T parietal cortex (TSPO [5]; [7]): 3.9 ± 0.3 mL/cm^3
V T putamen (TSPO [5]; [7]): 4.0 ± 0.2 mL/cm^3
V T temporal cortex (TSPO [5]; [7]): 3.9 ± 0.4 mL/cm^3
V T thalamus (TSPO [5]; [7]): 5.1 ± 0.4 mL/cm^3
organ with highest radiation-absorbed dose [6]: highest in the lung
